Data published in paper PMC9668914, “Understanding VPAC receptor family peptide binding and selectivity” (Nature Communications, 2022).
Like-named read-outs stand apart in the source and are kept apart here. No end group written: not given here.

What was measured:
PAC1R = target: T1, PAC1R (Homo sapiens, UniProt P41586); assay: cAMP accumulation, chimeric peptides (Fig. 5b); format: cell-based; conditions: COS-7, three-parameter logistic, read-out: pEC50, PAC1R cAMP (converted)
T1 construct: An HA signal peptide was inserted in place of the native signal peptide of the receptors; HA signal peptide (replaces the native signal peptide) (N); 3C protease cleavage sites (between FLAG and receptor, and between receptor and His) (internal); expressed in transfected cells; host or cells: COS-7 (transient, PEI)
T1 sequence (P41586 21-468): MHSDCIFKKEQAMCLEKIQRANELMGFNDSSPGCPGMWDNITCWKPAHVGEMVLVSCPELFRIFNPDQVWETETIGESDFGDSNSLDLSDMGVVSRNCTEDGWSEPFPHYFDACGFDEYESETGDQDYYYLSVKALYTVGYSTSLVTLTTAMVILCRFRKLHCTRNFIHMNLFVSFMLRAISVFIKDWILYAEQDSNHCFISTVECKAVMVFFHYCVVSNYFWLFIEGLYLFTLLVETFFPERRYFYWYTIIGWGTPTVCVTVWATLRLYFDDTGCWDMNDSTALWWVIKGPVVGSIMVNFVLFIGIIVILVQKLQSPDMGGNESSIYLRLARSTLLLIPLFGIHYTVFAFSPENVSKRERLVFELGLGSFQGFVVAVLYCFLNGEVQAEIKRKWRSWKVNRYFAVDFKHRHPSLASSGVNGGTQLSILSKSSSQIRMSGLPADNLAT
Excerpt: (§1) An HA signal peptide was inserted in place of the native signal peptide of the receptors and a FLAG epitope was incorporated into the receptor N-terminus immediately after the signal peptide. A His tag was fused to C-terminus of the receptor. 3C protease cleavage sites were inserted between both the FLAG and His tags and the receptor. […] The following PAC1R and VPAC1R mutants were also generated using Quikchange mutagenesis: PAC1R C25A, PAC1R C219A, PAC1R C25A/C219A, VPAC1R C37A and VPAC1R C208A. For all PAC1R constructs, we used the PAC1R null (PAC1n) splice variant. A construct containing N-terminal NLuc immediately after the native signal peptide of PAC1R was also generated in pcDNA3.1.
COS-7 cells were used for the chimeric peptide and cysteine mutagenesis pharmacological assays due to their lack of endogenous expression of PAC1R and receptor activity-modifying proteins, reported to potentially heterodimerize with PAC1R and VPAC1R[42]. Cells were cultured in Dulbecco’s Modified Eagle’s Medium (DMEM) (Invitrogen) supplemented with 5% v/v heat-inactivated FBS at 37 °C and […] /5% CO2 in a humidified incubator. COS-7 cells were plated in 10 cm dishes at approximately 1 million cells/dish. Cells were transfected 24 h later, with 5 µg of either WT or mutant PAC1R or VPAC1R receptor DNA. DNA and PEI (in a 1:6 ratio) were each diluted in 150 mM NaCl, and then combined and incubated for 10 min, before the mixture was added to the 10 cm dish. The next day, cells were harvested from the 10 cm dishes using Trypsin-Versene (PBS + 0.5 mM EDTA, pH 7.4), and were seeded at a density of 15,000 cells/well into clear 96-well culture plates and incubated overnight at 37 °C in 5% CO2 for cAMP accumulation assay the next day.
The reaction was terminated after 30 min by aspiration of the buffer and addition of 50 μl of ice-cold ethanol. Upon evaporation of ethanol, 75 μl of lysis buffer (5 mM HEPES, 0.1% (w/v) OVA, 0.3% (w/v) Tween20, pH 7.4) was added to the cells. cAMP detection was performed using a LANCE cAMP Detection Kit (PerkinElmer) for the construct validation and cysteine mutagenesis pharmacological assays and cAMP Gs HiRange kit (Cisbio) for the chimeric peptide pharmacological assays. The plates were read using an EnVision plate reader with excitation at 320 nm and emission at 615 nm[45].
(§2) The pharmacological data in figures and tables are reported as mean + standard error of the mean (SEM) with the number of biological replicates indicated in the figure and table legends where “n” represents the number of biological replicates performed. Concentration-response data were analyzed in GraphPad Prism version 9.4.0 using a three-parameter logistic curve to derive pEC50 values for the cyclic AMP accumulation. Competition binding data were analyzed in GraphPad Prism using the one site—Fit log IC50 model to derive pIC50 values. For the cysteine mutagenesis data, comparisons of multiple different groups were performed using one-way analysis of variance (ANOVA), followed by Dunnett’s post-hoc test with the control group being the WT receptor, with significance accepted at p < 0.05. For the chimeric peptide data, comparisons of multiple different groups were performed using one-way ANOVA, followed by Tukey’s post-hoc test, with significance accepted at p < 0.05.

Nluc-PAC1R = target: T2, Nluc-PAC1R (Homo sapiens, UniProt P41586); assay: NanoBRET competition binding, AF568-PACAP27 probe (Fig. 5c); conditions: COS-7, 30 nM AF568-PACAP27, 4 °C, read-out: pIC50, PAC1R competition binding (converted)
T2 construct: A construct containing N-terminal NLuc immediately after the native signal peptide of PAC1R was also generated in pcDNA3.1; expressed in transfected cells; host or cells: COS-7 (transient, PEI; whole cells at 4 °C)
T2 sequence (P41586 21-468): T1 sequence (P41586 21-468)
Excerpt: as §1
Therefore, the lysine residue at position 21 was replaced with a cysteine residue (^21C) for the facile conjugation of fluorophore via thiol-maleimide click reaction. The resulting target peptide ^21C-PACAP27 (Mutant fragment) with amidated C-terminus was synthesized by standard Fmoc-solid phase peptide synthesis method[43] and purified by Reversed-phase high-performance liquid chromatography (RP-HPLC). […] of Alexa Fluor™ 568F was purchased from ThermoFisher Scientific (Catalog number: A20003). The thiol-maleimide conjugation reaction was carried out by our published protocol. […] The molecular weight of the probe was confirmed by Matrix-Assisted Laser Desorption/Ionization Time-of-Flight Mass Spectrometry (MALDI-TOF MS).
COS-7 cells were plated in 10 cm dishes at approximately 1 million cells/dish. Cells were transfected 24 h later, using 3 μg of Nluc-PAC1R DNA using the method described above and then seeded at a density of 15,000 cells per well in white-bottom 96-well culturplates 24 h prior to assay. On the day of the assay, cell culture media was replaced with BRET buffer (0.1% ovalbumin, 10 mM HEPES, 1x HBSS, pH 7.45) and incubated at 4 °C for two hours. […] After 1.5 h, furimazine (10 μM final concentration) was added to each well and the plate incubated for a further 30 min in the dark at 4 °C before reading. Filtered light emissions were measured at 460±40 nm (donor channel) and at 610-LP nm (long pass) (acceptor channel) using a PHERAstar plate reader (BMG Labtech). The raw NanoBRET ratio was calculated by dividing the luminescence from the acceptor channel by the donor channel. Data were expressed as % AF568-PACAP27 BRET signal in the absence of competing ligand.
as §2

CC[C@H](C)[C@H](NC(=O)[C@H](C)NC(=O)[C@H](CC(=O)O)NC(=O)[C@H](CO)NC(=O)[C@@H](N)Cc1cnc[nH]1)C(=O)N[C@@H](Cc1ccccc1)C(=O)N[C@H](C(=O)N[C@@H](CC(=O)O)C(=O)N[C@@H](CO)C(=O)N[C@@H](Cc1ccc(O)cc1)C(=O)N[C@@H](CO)C(=O)N[C@@H](CCCNC(=N)N)C(=O)N[C@@H](Cc1ccc(O)cc1)C(=O)N[C@@H](CCCNC(=N)N)C(=O)N[C@@H](CCCCN)C(=O)N[C@@H](CCC(N)=O)C(=O)N[C@@H](CCSC)C(=O)N[C@@H](C)C(=O)N[C@H](C(=O)N[C@@H](CCCCN)C(=O)N[C@@H](CCCCN)C(=O)N[C@@H](Cc1ccc(O)cc1)C(=O)N[C@@H](CC(C)C)C(=O)N[C@@H](C)C(=O)N[C@@H](C)C(=O)N[C@H](C(=O)N[C@@H](CC(C)C)C(N)=O)C(C)C)C(C)C)[C@@H](C)O [Ala4 PACAP27]
EC50 (PAC1R; replicate n=1): 3.48 nM
EC50 (PAC1R; replicate n=2): 1.67 nM
EC50 (PAC1R; replicate n=3): 2.05 nM
EC50 (PAC1R; replicate n=4): 8.65 nM
EC50 (PAC1R; replicate n=5): 3.32 nM
IC50 (Nluc-PAC1R; replicate n=1): 695 nM
IC50 (Nluc-PAC1R; replicate n=2): 1970 nM
IC50 (Nluc-PAC1R; replicate n=3): 546 nM
IC50 (Nluc-PAC1R; replicate n=4): 918 nM
IC50 (Nluc-PAC1R; replicate n=5): 2860 nM

HSDGVFTDNYTRLRKQMAVKKYLNSILN-NH2 [Gly4 VIP]
EC50 (PAC1R; replicate n=1): 28.7 nM
EC50 (PAC1R; replicate n=2): 12 nM
EC50 (PAC1R; replicate n=3): 12.6 nM
EC50 (PAC1R; replicate n=4): 23.6 nM
EC50 (PAC1R; replicate n=5): 7.96 nM
IC50 (Nluc-PAC1R; replicate n=1): 7550 nM
IC50 (Nluc-PAC1R; replicate n=2): 5500 nM
IC50 (Nluc-PAC1R; replicate n=3): 7110 nM
IC50 (Nluc-PAC1R; replicate n=4): 3400 nM
IC50 (Nluc-PAC1R; replicate n=5): 1140 nM
